Test results reported in US10865191B2, “Heterocyclic compounds useful as modulators of TNF alpha” (BRISTOL-MYERS SQUIBB COMPANY, priority 2015, dated 2020).

target: TNFα (Homo sapiens, UniProt P01375); assay: TNF induced HEK-Blue assay (NF-kB-driven secreted alkaline phosphatase reporter); type: cell-based; conditions: TNF induced HEK-Blue assay IC50 value, TNFα 0.5 ng/mL, HEK-Blue-CD40L cells, 18 h
Summary of the method: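 HEK-Blue-CD40L cells (NF-kB-driven SEAP reporter), 20,000/well, added after 30 min pre-incubation of compound (0.004–25 μM final) with TNFα 0.5 ng/mL final at 37 °C; 18 h incubation. SEAP read with QUANTI-Blue at 620 nm; IC50 from 4-parameter logistic fit, normalized to unstimulated and stimulated DMSO controls.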

Chain of TNFα (P01375 77-233 limits assumed): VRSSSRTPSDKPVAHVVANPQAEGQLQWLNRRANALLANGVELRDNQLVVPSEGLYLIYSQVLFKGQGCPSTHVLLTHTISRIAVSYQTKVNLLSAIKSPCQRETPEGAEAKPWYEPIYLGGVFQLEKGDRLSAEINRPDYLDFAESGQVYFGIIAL

IC50	SMILES
< 1000 nM	CCOc1ncc(-c2ccc3ncc(Cl)c(N[C@H](C)c4ccccc4F)c3c2)cn1 [Example 222, (R)-3-chloro-6-(2-ethoxypyrimidin-5-yl)-N-(1-(2-fluorophenyl)ethyl)quinolin-4-amine]

same assay, conditions: TNFα 0.5 ng/mL, HEK-Blue-CD40L cells, 18 h; read-out: TNF induced HEK-Blue assay IC50 value

SMILES	IC50
CC(Nc1c(Cl)cnc2cc(F)c(-c3cnc(N4CCN(C(=O)CCC(=O)O)CC4)nc3)cc12)c1ccccc1F (single isomer, unassigned) [Example 602, 4-(4-(5-(3-chloro-7-fluoro-4-((1-(2-fluorophenyl)ethyl)amino)quinolin-6-yl)pyrimidin-2-yl)piperazin-1-yl)-4-oxobutanoic acid]	< 1000 nM
OC[C@@H]1CN(c2ncc(-c3ccc4ncc(Cl)c(N[C@@H](c5ccccc5F)C(F)F)c4c3)cn2)CCO1 [Example 87, ((S)-4-(5-(3-chloro-4-(((S)-2,2-difluoro-1-(2-fluorophenyl)ethyl)amino)quinolin-6-yl)pyrimidin-2-yl)morpholin-2-yl)methanol]	< 1000 nM
CC(Nc1c(Cl)cnc2cc(F)c(-c3cnc(C(C)(C)O)nc3)nc12)c1cccc(N)c1 (racemic) [Example 239, 2-(5-(8-((1-(3-aminophenyl)ethyl)amino)-7-chloro-3-fluoro-1,5-naphthyridin-2-yl)pyrimidin-2-yl)propan-2-ol]	< 1000 nM
Fc1ccc(Br)cc1[C@@H](Nc1c(Cl)cnc2ccccc12)C(F)F [Example 510, (R)—N-(1-(5-bromo-2-fluorophenyl)-2,2-difluoroethyl)-3-chloroquinolin-4-amine]	1000 to 10000 nM
C[C@@H](Nc1c(Cl)cnc2ccccc12)c1cc(-c2cccnc2N)ccc1F [Example 512, (R)—N-(1-(5-(2-aminopyridin-3-yl)-2-fluorophenyl)ethyl)-3-chloroquinolin-4-amine]	10000 to 25000 nM
CC(C)(O)c1ncc(-c2nc3c(N[C@H](c4cc(C(=O)O)ccc4F)C(F)F)c(Cl)cnc3cc2F)cn1 [Example 485, (R)-3-(1-((3-chloro-7-fluoro-6-(2-(2-hydroxypropan-2-yl)pyrimidin-5-yl)-1,5-naphthyridin-4-yl)amino)-2,2-difluoroethyl)-4-fluorobenzoic acid]	1000 to 10000 nM
Cc1nc2ccc(C3C=NC(C(C)(C)O)=NC3)cc2c(N[C@H](C)c2cc(CO)ccc2F)c1Cl (stereo partly drawn) [Example 432, (R)-2-(5-(3-chloro-4-((1-(2-fluoro-5-(hydroxymethyl)phenyl)ethyl)amino)-2-methylquinolin-6-yl)-4,5-dihydropyrimidin-2-yl)propan-2-ol]	< 1000 nM
CCCC(C)C(=O)c1c(Cl)c(C)nc2ccc(-c3cnc(C(C)(C)O)nc3)cc12 (racemic) [Example 356, ± 1-(3-Chloro-6-(2-(2-hydroxypropan-2-yl)pyrimidin-5-yl)-2-methylquinolin-4-yl)-2-methylpentan-1-one]	10000 to 25000 nM
CNc1ncc(-c2cc(Cl)c3ncc(Cl)c(NC(C)c4ccccc4F)c3c2)cn1 (racemic) [Example 19, 3,8-dichloro-N-(1-(2-fluorophenyl)ethyl)-6-(2-(methylamino)pyrimidin-5-yl)quinolin-4-amine]	10000 to 25000 nM
Cc1nc2cc(F)c(-c3cnc(C(C)(C)O)nc3)cc2c(N[C@H](C)c2cccc(C#N)c2)c1Cl [Example 383, (R)-3-(1-((3-chloro-7-fluoro-6-(2-(2-hydroxypropan-2-yl)pyrimidin-5-yl)-2-methylquinolin-4-yl)amino)ethyl)benzonitrile]	< 1000 nM
CC[C@@H](Nc1c(Cl)cnc2ccccc12)c1cc(-c2cncnc2)ccc1F [Example 558, (R)-3-chloro-N-(1-(2-fluoro-5-(pyrimidin-5-yl)phenyl)propyl)quinolin-4-amine]	< 1000 nM
CC(C)(O)c1ncc(-c2nc3c(N[C@@H](c4cc(C(O)CO)ccc4F)C(F)F)c(Cl)cnc3cc2F)cn1 (stereo partly drawn) [Example 492, 1-(3-((S)-1-((3-chloro-7-fluoro-6-(2-(2-hydroxypropan-2-yl)pyrimidin-5-yl)-1,5-naphthyridin-4-yl)amino)-2,2-difluoroethyl)-4-fluorophenyl)ethane-1,2-diol]	< 1000 nM
C[C@@H](Nc1c(Cl)cnc2ccc(-c3ccc(C(N)CC(=O)O)cc3)cc12)c1ccccc1F (mixture of isomers) [Example 115, 3-amino-3-(4-(3-chloro-4-(((R)-1-(2-fluorophenyl)ethyl)amino)quinolin-6-yl)phenyl)propanoic acid]	1000 to 10000 nM
CC(Nc1c(Cl)cnc2ccc(-c3ccc(C(C)(C)O)cc3)cc12)c1ccon1 (racemic) [Example 174, 2-(4-(3-chloro-4-((1-(isoxazol-3-yl)ethyl)amino)quinolin-6-yl)phenyl)propan-2-ol]	10000 to 25000 nM
COc1cc(-c2ccc(F)c([C@@H](C)Nc3c(Cl)cnc4ccccc34)c2)c(OC)nn1 [Example 513, (R)-3-chloro-N-(1-(5-(3,6-dimethoxypyridazin-4-yl)-2-fluorophenyl)ethyl)quinolin-4-amine]	1000 to 10000 nM
CC(Nc1c(Cl)cnc2cc(F)c(-c3cc(F)c(C(C)(C)O)c(F)c3)cc12)c1ccccc1F (racemic) [Example 267, 2-(4-(3-chloro-7-fluoro-4-((1-(2-fluorophenyl)ethyl)amino)quinolin-6-yl)-2,6-difluorophenyl)propan-2-ol]	< 1000 nM
Cc1cncc(-c2ccc(F)c([C@@H](C)Nc3c(Cl)cnc4ccccc34)c2)c1 [Example 507, (R)-3-chloro-N-(1-(2-fluoro-5-(5-methylpyridin-3-yl)phenyl)ethyl)quinolin-4-amine]	< 1000 nM
C[C@@H](Nc1c(Cl)cnc2ccc(-c3cnc(N4CCN([C@@H](CN)C(=O)O)CC4)nc3)cc12)c1ccccc1F [Example 94, (S)-3-amino-2-(4-(5-(3-chloro-4-(((R)-1-(2-fluorophenyl)ethyl)amino)quinolin-6-yl)pyrimidin-2-yl)piperazin-1-yl)propanoic acid]	< 1000 nM

More lines, now with the values ahead:

IC50	SMILES
< 1000 nM	C[C@@H](Nc1c(Cl)cnc2ccc(-c3cnc(C(C)(C)O)nc3)cc12)c1cc(-c2ccnc(N)c2)ccc1F [Example 350, (R)-2-(5-(4-((1-(5-(2-aminopyridin-4-yl)-2-fluorophenyl)ethyl)amino)-3-chloroquinolin-6-yl)pyrimidin-2-yl)propan-2-ol]
< 1000 nM	CC(Nc1c(Cl)cnc2ccc(-c3cnc(C(C)(C)O)nc3)cc12)c1ccncc1F (racemic) [Example 162, 2-(5-(3-chloro-4-((1-(3-fluoropyridin-4-yl)ethyl)amino)quinolin-6-yl)pyrimidin-2-yl)propan-2-ol]
< 1000 nM	CCC(Nc1c(Cl)cnc2ccc(-c3cnc(C(C)(C)O)nc3)cc12)c1nc(C(O)CO)ccc1F (centres unmarked) [Example 127, 1-(6-(1-((3-chloro-6-(2-(2-hydroxypropan-2-yl)pyrimidin-5-yl)quinolin-4-yl)amino)propyl)-5-fluoropyridin-2-yl)ethane-1,2-diol]
< 1000 nM	Cc1ccc(F)c([C@H](Nc2c(Cl)c(C)nc3ccc(-c4cnc(C(C)(C)O)nc4)cc23)C(F)F)c1 [Example 351, (S)-2-(5-(3-chloro-4-((2,2-difluoro-1-(2-fluoro-5-methylphenyl)ethyl)amino)-2-methylquinolin-6-yl)pyrimidin-2-yl)propan-2-ol]
< 1000 nM	CCC(Nc1c(Cl)cnc2ccc(-c3cnc(C(C)(C)O)nc3)cc12)C1CCC1 (racemic) [Example 50, 2-(5-(3-chloro-4-((1-cyclobutylpropyl)amino)quinolin-6-yl)pyrimidin-2-yl)propan-2-ol]
< 1000 nM	CCC(Nc1c(Cl)cnc2ccc(-c3cnc(C(C)(C)O)nc3)cc12)c1ccccn1 (racemic) [Example 52, 2-(5-(3-chloro-4-((1-(pyridin-2-yl)propyl)amino)quinolin-6-yl)pyrimidin-2-yl)propan-2-ol]
< 1000 nM	CC(C)(O)c1ncc(-c2cc3c(N[C@@H](c4ccccc4F)C(F)F)c(Cl)cnc3cc2F)cn1 [Example 269, (S)-2-(5-(3-chloro-4-((2,2-difluoro-1-(2-fluorophenyl)ethyl)amino)-7-fluoroquinolin-6-yl)pyrimidin-2-yl)propan-2-ol]
10000 to 25000 nM	Cc1nc2ccc(-c3cnc(C(C)(C)O)nc3)cc2c(N[C@H](c2cc(C#N)ccc2F)C(F)F)c1Cl [Example 378, (R)-3-(1-((3-chloro-6-(2-(2-hydroxypropan-2-yl)pyrimidin-5-yl)-2-methylquinolin-4-yl)amino)-2,2-difluoroethyl)-4-fluorobenzonitrile]
< 1000 nM	C[C@@H](Nc1c(Cl)cnc2ccc(-c3cnc(C(C)(C)O)nc3)cc12)c1cc(O)ccc1F [Example 405, (R)-3-(1-((3-chloro-6-(2-(2-hydroxypropan-2-yl)pyrimidin-5-yl)quinolin-4-yl)amino)ethyl)-4-fluorophenol]
< 1000 nM	COCC(C)(O)c1ncc(-c2cc3c(NC(C)c4ccccc4F)c(Cl)cnc3cc2F)cn1 (centres unmarked) [Example 293, 2-(5-(3-chloro-7-fluoro-4-((1-(2-fluorophenyl)ethyl)amino)quinolin-6-yl)pyrimidin-2-yl)-1-methoxypropan-2-ol]
10000 to 25000 nM	Cc1ccc2c(CCC(C)Nc3c(Cl)cnc4ccc(-c5cnc(C(C)(C)O)nc5)cc34)c[nH]c2c1 (racemic) [Example 141, 2-(5-(3-chloro-4-((4-(6-methyl-1H-indol-3-yl)butan-2-yl)amino)quinolin-6-yl)pyrimidin-2-yl)propan-2-ol]
10000 to 25000 nM	COc1ncc(-c2ccc(F)c([C@@H](C)Nc3c(Cl)cnc4ccccc34)c2)cn1 [Example 543, (R)-3-chloro-N-(1-(2-fluoro-5-(2-methoxypyrimidin-5-yl)phenyl)ethyl)quinolin-4-amine]
1000 to 10000 nM	C[C@@H](Nc1c(Cl)cnc2ccc(-c3cnc(C(C)(C)O)nc3)cc12)c1cc(C(C)(C)O)ccc1F [Example 410, (R)-2-(5-(3-chloro-4-((1-(2-fluoro-5-(2-hydroxypropan-2-yl)phenyl)ethyl)amino)quinolin-6-yl)pyrimidin-2-yl)propan-2-ol]
